Read-outs that look alike come from different tables or passages of the source.
Experiments:
[1] = test system: Trypanosoma cruzi (Tulahuen C2C4 strain); assay: in vitro growth-inhibiting screening assay, protozoa of American trypanosomiasis; format: cell-based; details: for EC50: in infected rat L6 cells, 96 h, CPRG/Nonidet, read-out: 50% growth-inhibiting concentration (nM) Trypanosoma cruzi
Procedure: The test was done using a trypomastigote and an amastigote of the protozoa of Trypanosoma cruzi (Tulahuen C2C4 strain) present in the infected rat L6 cells. The L6 cells were cultured in RPMI-1640 medium supplemented with 1% of […] (200 mM) and 10% of fetal calf serum under CO2 concentration of 5%, at 37° C.
A test sample was prepared by dissolving the test compounds according to the present invention and a positive control drug (benznidazole) in DMSO to a predetermined concentration. Culture medium containing the protozoa of 5×10^3 was added into each well of 96-well culture plate and cultured for 48 hours. After the medium was exchanged, the test sample comprising the predetermined amount of the test compound, and DMSO without the test compound were added into each well in duplicate.
After incubation of the culture plate for 96 hours in an incubator, a growth-inhibiting activity was assayed as follows. CPRG/Nonidet (50 μL) was added to each well followed by a further 2˜6-hour culture. The culture plate was then attached to an absorption micro titer plate reader, the absorbance at 540 nm was detected to calculate an infection ratio of the protozoa with respect to a group treated with the test sample and a control group. A growth-inhibiting ratio was then calculated from the resulting infection ratio in accordance with the following equation to determine 50% growth-inhibiting concentration (EC50).
Growth-inhibiting ratio (%)=[1−(b−a)/(c−a)]×100 • a: Initial infection ratio; • b: Infection ratio of the test sample group; and • c: Infection ratio of the control group.
A selective toxicity coefficient, which is used as an index for the selective toxicity for the protozoa of American trypanosomiasis, was calculated by the following equation, and the pharmaceutical effect was determined.
A selective toxicity coefficient=(EC50 value of the test sample for rat L6 cell)/(EC50 value of the test sample for the protozoa of American trypanosomiasis).

[2] = test system: Plasmodium berghei NK65 strain; assay: in vivo 4-day suppressive test, intraperitoneal administration, mouse infected with malaria; details: 4 days
Procedure: This test was carried out in accordance with 4-day suppressive test that is a general in vivo test for the activity of an anti-malaria compound. Rodent malaria protozoa (Plasmodium berghei NK65 strain) were used in this test. Infected blood was prepared by infection with intraperitoneal administration into ICR male mouse (5 weeks age; SPF) and passage culture (subculture) thereafter. Blood was drawn from the vein of a tail of the moue infected with malaria, and its infection ratio was determined. After it was confirmed that the infection ratio had been increased up to an appropriated level (10˜20%), the blood infected with malaria was drawn from the heart of the mouse. The infection ratio and number (cells/mL) of erythrocytes were determined. An uninfected mouse (ICR male, 5 weeks age) was then infected with an injection of the infected erythrocytes so diluted with PBS as to comprise the protozoa of […] per dose (0.2 mL) into the vein of its tail.
A test sample was prepared by dissolving the test compounds according to the present invention into physiologic saline (Otsuka Pharmaceuticals Industries) to a predetermined concentration. In the case where the compound was insoluble in water, it was dissolved into DMSO or Tween 20 to prepare the test sample. A control group (no drug-administration group) was treated only with physiologic saline. […]
One group consisted of five mice. The intraperitoneal administration of the test sample started after two hours from the infection with malaria and continued for successive 4 days with a 24-hour interval. After 24 hours from the last administration, blood was drawn from the tail of the infected mouse to prepare a thin-layer smear, and the number of the erythrocytes infected with the malaria protozoa under a microscope with respect to the control group and the test sample groups. Parasitemia, i.e., the infection ratio with the malaria protozoa, was obtained by calculating an average value of the medium three mice except the two mice showing a maximum or minimum inhibition level. A cure rate (suppression) was then calculated from the resulting parasitemia in accordance with the following equation.
Cure rate: suppression (%)=(b−a)/b×100 • a: Infection ratio of the test sample group; and • b: Infection ratio of the control group.

[3] = test system: Plasmodium Falciparum K1 strain; assay: in vitro growth-inhibiting screening assay, chloroquine-resistant falciparum malaria; format: cell-based; details: for EC50: chloroquine-resistant strain, 72 h culture, 3H-hypoxanthine, read-out: 50% growth-inhibiting concentration (nM) P. falciparum K1
Procedure: Plasmodium Falciparum K1 strain was used as a chloroquine-resistant protozoa of falciparum malaria. RMI-1640 sterilized by filtration was supplemented with human serum of a final concentration of 5% to be used as a culture medium. The malaria protozoa were cultured under O2 concentration of 3%, CO2 concentration of 4%, N2 concentration of 93% at 37° C.
A test sample was prepared by dissolving the test compounds according to the present invention and a positive control drug (chloroquine) in DMSO to a predetermined concentration. The erythrocytes infected with the cultured malaria protozoa were collected by centrifugation and so diluted with non-infected erythrocytes to have an initial infection ratio of 0.15%. The hematocrit value was then 2.5%. Culture mixture of the above malaria-infection culture medium (200 μL) was placed into each well of a 96-well culture plate, and the test sample comprising the predetermined amount of the test compound, and DMSO without the test compound were added to the wells in duplicate.
After culture for 48 hours at 37° C., hypoxanthine labeled with radioactive tritium (^3H) of 0.5 μCi was added to each well. After the culture in the same conditions for further 24 hours, the sample was taken on a glass fiber filter and washed with distilled water. Intensity of radiation was measured by means of plate liquid scintillation counter (Wallac Co.), and an infection ratio of the protozoa of malaria was calculated with respect to a group treated with the test sample and the control. A growth-inhibiting ratio was then calculated from the resulting infection ratio in accordance with the following equation to determine 50% growth-inhibiting concentration (EC50).
Growth-inhibiting ratio (%)=[1−(b−a)/(c−a)]×100 • a: Initial infection ratio; • b: Infection ratio of the test sample group; and • c: Infection ratio of the control group. In vitro Growth-Inhibiting Assay of Rat L6 Cells
Anti-malaria effect of the samples was assessed by their EC50 values for the chloroquine-resistant protozoa of falciparum malaria and the rat L6 cell. A chemotherapy coefficient, which is used as an index for the selective toxicity for the chloroquine-resistant protozoa of falciparum malaria was calculated by the following equation, and the pharmaceutical effect was determined.
Chemotherapy coefficient=(EC50 value of the test sample for rat L6 cell)/(EC50 value of the test sample for the chloroquine-resistant protozoa of falciparum malaria)

[4] = Table 5, 2.5 mg/kg/day intraperitoneal
[5] = Table 5, 5.0 mg/kg/day intraperitoneal
[6] = Table 5, 10 mg/kg/day intraperitoneal
[7] = Table 5, 20 mg/kg/day intraperitoneal

SMILES	EC50 [1] [nM]	Parasitaemia suppression (%) ([2]; 5 mg/kg/day intraperitoneal)	Parasitaemia suppression (%) [2, 4] [%]	Parasitaemia suppression (%) [2, 5] [%]	Parasitaemia suppression (%) [2, 6] [%]	Parasitaemia suppression (%) [2, 7] [%]	EC50 [3] [nM]	Selective toxicity ([1]; EC50 rat L6 cell / EC50 protozoa of American trypanosomiasis)	EC50 ([1]; Trypanosoma cruzi, TULAHUEN) [nM]	Selective toxicity ([3]; EC50 rat L6 cell / EC50 P. falciparum K1)	EC50 ([3]; Plasmodium falciparum, K1) [nM]
CCN(CC)c1ccc2nc3ccc(=[N+](CC)CC)cc-3oc2c1.[Cl-] [A-1 (60% purity)]	149	46.3	30.5	46.3	82.4	95.8	4.6	–	–	–	–
CCN(CC)c1ccc2nc3ccc(=[N+](CC)CC)cc-3oc2c1.[Cl-] [A-1 (>95% purity)]	15	79.2	–	–	–	–	2.1	–	–	–	–
CN(C)c1ccc2nc3ccc(=[N+](C)C)cc-3oc2c1.CN(C)c1ccc2nc3ccc(=[N+](C)C)cc-3oc2c1.[Cl-].[Cl-].[Cl][Zn][Cl] [Compound A-3]	457	17.1	–	–	–	–	15.6	–	–	–	–
CC[N+](CC)=c1ccc2nc3ccc(N(C)C)cc3oc-2c1 [Compound A-4]	–	85.3	58.7	85.3	99.9	>99.99	–	22	211	1200	2.1
CCCC[N+](CCCC)=c1ccc2nc3ccc(N(CC)CC)cc3oc-2c1.[Cl-] [Compound A-6]	24	83.1	–	–	–	–	2.4	–	–	–	–
CCCC[N+](CCCC)=c1ccc2nc3ccc(N(C)C)cc3oc-2c1.[O-][Cl+3]([O-])([O-])[O-] [Compound A-7]	22	90.3	–	–	–	–	1.5	–	–	–	–

— patent US20090036437A1, “PHARMACEUTICAL COMPOSITION COMPRISING PHENOXAZINIUM COMPOUND AS AN ACTIVE INGREDIENT” (priority 2005, published 2009)
